The source of these data is ChEMBL document CHEMBL1141272, “Eujavanicols A-C, decalin derivatives from Eupenicillium javanicum” (J Nat Prod, 2007).

The source made the active and inactive calls. No cut-off for these calls is given here.

In this assay the test system is Aspergillus fumigatus. Description: Antifungal activity against Aspergillus fumigatus. The assay is classed as functional, organism-based.
Regarding `CC[C@@H](C)[C@H]1C=C[C@H]2[C@H](O)[C@H](O)C[C@@H](C)[C@@H]2[C@@]1(C)C(=O)CCO`, the outcome was inactive.

On to `CC[C@@H](C)[C@H]1C=C[C@H]2[C@H](O)[C@@H](O)C[C@@H](C)[C@@H]2[C@@]1(C)C(=O)CCO`, for which the outcome was inactive.

`CC[C@@H](C)C1=CC(=O)[C@H]2[C@H](O)[C@H](O)C[C@@H](C)[C@@H]2[C@@]1(C)C(=O)CCO`: the result was inactive.
